Where “and” joins values, the source holds several entries; their conditions need not be identical. Equal entries are not always repeated.

This assay deals with cos-7 cells. As to the kind of experiment: DNA transfection: luciferase expression relative to Lipofectamine 2000. The settings on record: 300 ng Luciferase DNA per well, luciferase assay after 48 hours. The format is cell-based. An outline of the steps:
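Lipid/DNA complexes, 300 ng luciferase DNA per well at 2.5-25 w/w lipid:DNA, were formed in sodium acetate/Optimem and added to overnight-seeded cos-7 cells. Luciferase was measured by Bright-Glo luminescence after 48 hours and quantified against an enzyme standard curve. Values are expressed as % of Lipofectamine 2000 at 2.5 w/w.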

Regarding `CCCCCCCCCCOC(=O)CCN(C)CCCN(C)CCC(=O)OCCCCCCCCCC` [LB63], the “Luciferase expression as a percentage of that achieved using Lipofectamine 2000” value (shortened to “Luciferase expression as a percentage”) runs as follows: (lipid/DNA 2.5 w/w) 0.1%; (lipid/DNA 5 w/w) 0.2% and 0.1%; (lipid/DNA 10 w/w) 0.1%; (lipid/DNA 15 w/w) 1.0% and 0.1%; (lipid/DNA 20 w/w) 0.1%; (lipid/DNA 25 w/w) 0.2% and 0.1%.
As to `CCCCCCCCCCCCCCOC(=O)CCN(CCCN(C)C)CCC(=O)OCCCCCCCCCCCCCC` [LF80], the “Luciferase expression as a percentage” value turned out to be 2.5% (lipid/DNA 2.5 w/w); 35.1% (lipid/DNA 5 w/w); 35.5% (lipid/DNA 10 w/w); 34.3% (lipid/DNA 15 w/w); 19.9% (lipid/DNA 20 w/w); 14.8% (lipid/DNA 25 w/w).
In the case of `CCCCCCCCCCOC(=O)CCN(CCC(=O)OCCCCCCCCCC)CC1COC(C)(C)O1` (centres unmarked) [LB7], the “Luciferase expression as a percentage” value (lipid/DNA 2.5 w/w) is given as 0.1%; the “Luciferase expression as a percentage” value (lipid/DNA 5 w/w) worked out at 0.1%; the “Luciferase expression as a percentage” value (lipid/DNA 10 w/w) is reported as 0.1%; the “Luciferase expression as a percentage” value (lipid/DNA 15 w/w) is 0.1%; the “Luciferase expression as a percentage” value (lipid/DNA 20 w/w) was 0.1%; the “Luciferase expression as a percentage” value (lipid/DNA 25 w/w) was determined as 0.2%.
For the molecule `CCCCCCCCCCCCCCCOC(=O)CCN(CCC(=O)OCCCCCCCCCCCCCCC)CC(C)O` (centres unmarked) [LG21], the “Luciferase expression as a percentage” value runs as follows: (lipid/DNA 2.5 w/w) 0.1%; (lipid/DNA 5 w/w) 0.1%; (lipid/DNA 10 w/w) 0.1%; (lipid/DNA 15 w/w) 0.2%; (lipid/DNA 20 w/w) 0.2%; (lipid/DNA 25 w/w) 0.4%.
For `CCCCCCCCCCCCCCOC(=O)CCN(CCC(=O)OCCCCCCCCCCCCCC)CCN(CCO)CCO` [LF86], the “Luciferase expression as a percentage” value (lipid/DNA 2.5 w/w) is listed as 21.5%; the “Luciferase expression as a percentage” value (lipid/DNA 5 w/w) worked out at 17.9%; the “Luciferase expression as a percentage” value (lipid/DNA 10 w/w) is recorded as 19.6%; the “Luciferase expression as a percentage” value (lipid/DNA 15 w/w) was found to be 21.2%; the “Luciferase expression as a percentage” value (lipid/DNA 20 w/w) turned out to be 10.5%; the “Luciferase expression as a percentage” value (lipid/DNA 25 w/w) is 10.4%.
On to `CCCCCCCCCCCCCCOC(=O)CCN(CCC(=O)OCCCCCCCCCCCCCC)C(CC)(CO)CO` [LF34], for which the “Luciferase expression as a percentage” value by setting is: (lipid/DNA 2.5 w/w) 0.1%; (lipid/DNA 5 w/w) 0.3%; (lipid/DNA 10 w/w) 1.1%; (lipid/DNA 15 w/w) 0.5%; (lipid/DNA 20 w/w) 0.2%; (lipid/DNA 25 w/w) 0.3%.
As to `CCCCCCCCCCCCOC(=O)CCN(CCC(=O)OCCCCCCCCCCCC)CCN(CCO)CCO` [LD86], the “Luciferase expression as a percentage” value is listed as 29.6% (lipid/DNA 10 w/w) and 16.0% (lipid/DNA 15 w/w).
With `CCCCCCCCCCOC(=O)CCN(CCC(=O)OCCCCCCCCCC)C(C)(CO)CO` [LB26], the “Luciferase expression as a percentage” value is, setting by setting: (lipid/DNA 2.5 w/w) 0.1%; (lipid/DNA 5 w/w) 0.1%; (lipid/DNA 10 w/w) 0.1%; (lipid/DNA 15 w/w) 0.1%; (lipid/DNA 20 w/w) 0.1%; (lipid/DNA 25 w/w) 0.1%.
`CCCCCCCCCCCCCCCCCCOC(=O)CCN(CCC(=O)OCCCCCCCCCCCCCCCCCC)CC(OC)OC` [LH13]: the “Luciferase expression as a percentage” value runs as follows: (lipid/DNA 2.5 w/w) 0.0%; (lipid/DNA 5 w/w) 0.0%; (lipid/DNA 10 w/w) 0.0%; (lipid/DNA 15 w/w) 0.0%; (lipid/DNA 20 w/w) 0.0%; (lipid/DNA 25 w/w) 0.0%.
On to `CCCCCCCCCCCCOC(=O)CC[N+](C)(CCCCO)CCC(=O)OCCCCCCCCCCCC.[I-]` [QD28], for which the “Luciferase expression as a percentage” value is, setting by setting: (lipid/DNA 10 w/w) 0.1%; (lipid/DNA 15 w/w) 0.1%.
Turning to `CCCCCCCCCCCCCCCCCCOC(=O)CCN(CCCO)CCC(=O)OCCCCCCCCCCCCCCCCCC` [LH20], the “Luciferase expression as a percentage” value came to 0.0% (lipid/DNA 2.5 w/w); 0.0% (lipid/DNA 5 w/w); 0.0% (lipid/DNA 10 w/w); 0.0% (lipid/DNA 15 w/w); 0.0% (lipid/DNA 20 w/w); 0.0% (lipid/DNA 25 w/w).
As to `CCCCCCCCCCCCCCCOC(=O)CCN(CCC(=O)OCCCCCCCCCCCCCCC)C(C)(CO)CO` [LG26], the “Luciferase expression as a percentage” value reads like this: (lipid/DNA 2.5 w/w) 0.6%; (lipid/DNA 5 w/w) 13.0%; (lipid/DNA 10 w/w) 1.9%; (lipid/DNA 15 w/w) 0.5%; (lipid/DNA 20 w/w) 0.3%; (lipid/DNA 25 w/w) 0.4%.
As for `CCCCCCCCCCOC(=O)CCN(CCOC)CCC(=O)OCCCCCCCCCC` [LB10], the “Luciferase expression as a percentage” value runs as follows: (lipid/DNA 2.5 w/w) 0.1%; (lipid/DNA 5 w/w) 0.1%; (lipid/DNA 10 w/w) 0.1%; (lipid/DNA 15 w/w) 0.1%; (lipid/DNA 20 w/w) 0.1%; (lipid/DNA 25 w/w) 0.1%.
For `CCCCCCCCCCCCCCCOC(=O)CCN(CCC(=O)OCCCCCCCCCCCCCCC)C(CC)(CO)CO` [LG34], the “Luciferase expression as a percentage” value (lipid/DNA 10 w/w) is on record as 1.4% and the “Luciferase expression as a percentage” value (lipid/DNA 15 w/w) is 0.8%.
Turning to `CCCCCCCCCCOC(=O)CCN(CCCN(C)C)CCC(=O)OCCCCCCCCCC` [LB80], the “Luciferase expression as a percentage” value is, setting by setting: (lipid/DNA 2.5 w/w) 0.7%; (lipid/DNA 5 w/w) 0.8%; (lipid/DNA 10 w/w) 0.1%; (lipid/DNA 15 w/w) 0.2%; (lipid/DNA 20 w/w) 1.0%; (lipid/DNA 25 w/w) 1.5%.
With `CCCCCCCCCCOC(=O)CCN(CCOCC)CCC(=O)OCCCCCCCCCC` [LB11], the “Luciferase expression as a percentage” value reads like this: (lipid/DNA 2.5 w/w) 0.1%; (lipid/DNA 5 w/w) 0.1%; (lipid/DNA 10 w/w) 0.1%; (lipid/DNA 15 w/w) 0.1%; (lipid/DNA 20 w/w) 0.1%; (lipid/DNA 25 w/w) 0.1%.
On to `CCCCCCCCCCCCCCOC(=O)CCN(CCN(CCC(=O)OCCCCCCCCCCCCCC)C(C)C)C(C)C` [LF62], for which the “Luciferase expression as a percentage” value is on record as 0.1% (lipid/DNA 2.5 w/w); 0.1% (lipid/DNA 5 w/w); 0.2% (lipid/DNA 10 w/w); 0.1% (lipid/DNA 15 w/w); 0.4% (lipid/DNA 20 w/w); 0.2% (lipid/DNA 25 w/w).
As to `CCCCCCCCCCCCOC(=O)CC[N+](C)(CCC(=O)OCCCCCCCCCCCC)CC[N+](C)(CCO)CCO.[I-].[I-]` [QD86], the “Luciferase expression as a percentage” value (lipid/DNA 10 w/w) is reported as 2.0% and the “Luciferase expression as a percentage” value (lipid/DNA 15 w/w) is 2.0%.
`CCCCCCCCCCCCCCOC(=O)CCN(CCC(=O)OCCCCCCCCCCCCCC)C[C@H](C)O` [LF22]: the “Luciferase expression as a percentage” value turned out to be 0.1% (lipid/DNA 2.5 w/w); 0.1% (lipid/DNA 5 w/w); 0.1% (lipid/DNA 10 w/w); 0.1% (lipid/DNA 15 w/w); 0.1% (lipid/DNA 20 w/w); 0.1% (lipid/DNA 25 w/w).
For `CCCCCCCCCCOC(=O)CCN(CCC(=O)OCCCCCCCCCC)C[C@H](C)O` [LB22], the “Luciferase expression as a percentage” value runs as follows: (lipid/DNA 2.5 w/w) 0.3%; (lipid/DNA 5 w/w) 0.3%; (lipid/DNA 10 w/w) 0.4%; (lipid/DNA 15 w/w) 0.4%; (lipid/DNA 20 w/w) 0.4%; (lipid/DNA 25 w/w) 0.4%.

For the origin of these results see patent publication US9006487B2, “Amine-containing lipids and uses thereof” (Massachusetts Institute of Technology, priority 2005, dated 2015).
